Experimental data published in patent US9951052B2, “Inhibitors of the renal outer medullary potassium channel” (Merck Sharp & Dohme Corp., priority 2013, dated 2018).

target: T1, hROMK (hKir1.1) (Homo sapiens, UniProt P48048); assay: Thallium Flux Assay (ROMK channel functional thallium flux, FLIPR-Tetra); format: cell-based; conditions: HEK293 cells stably expressing hROMK (hKir1.1); 30 min incubation with compound; HCl salt run where final product was an HCl salt
T1 construct: expressed in transfected cells
T1 sequence (P48048 1-391): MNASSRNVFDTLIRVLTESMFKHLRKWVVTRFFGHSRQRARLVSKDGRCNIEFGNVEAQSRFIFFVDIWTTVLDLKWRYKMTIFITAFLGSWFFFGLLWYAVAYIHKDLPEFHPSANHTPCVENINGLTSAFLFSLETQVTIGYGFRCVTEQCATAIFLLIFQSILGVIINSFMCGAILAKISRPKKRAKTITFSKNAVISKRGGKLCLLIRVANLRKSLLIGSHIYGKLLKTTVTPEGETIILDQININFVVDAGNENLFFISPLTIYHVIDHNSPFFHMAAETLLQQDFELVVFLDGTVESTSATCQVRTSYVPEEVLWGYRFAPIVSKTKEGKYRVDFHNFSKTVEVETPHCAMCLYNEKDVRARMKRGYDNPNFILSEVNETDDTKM
Procedure: The following Thallium Flux Assay was performed on each of the final product compounds in the Examples. When the final product of an Example was an HCl salt, the salt was run in the Assay.
Cell Culture Conditions—HEK293 cells stably expressing hROMK (hKir1.1) were grown at 37° C. in a 10% CO2 humidified incubator in complete growth media: Dulbecco's Modified Eagle Medium supplemented with non-essential amino acids, Penicillin/Streptomycin/Glutamine, G418 and FBS. At >80% confluency, aspirate the media from the flask and rinse with 10 mL Calcium/Magnesium-free PBS. Add 5 mL of 1× trypsin (prepared in Ca/Mg Free PBS) to T-225 flask and return flask to 37° C./CO2 incubator for 2-3 minutes. To dislodge the cell, gently bang the side of the flask with your hand. Triturate the cells completely and then transfer the cells to 25 mL complete media. Centrifuge at 1,500 rpm for 6 min followed by resuspension in complete growth media and determine cell concentration. For typical re-seeding, 4E6 cells/T-225 flask will attain >80% confluency in 4 days. Under ideal growth conditions and appropriate tissue culture practices, this cell line is stable for 40-45 passages.
FluxOR Kit Components (Invitrogen F10017)
• FluxOR™ Reagent (Component A) • FluxOR™ Assay Buffer (Component B)—10× Concentrate • PowerLoad™ Concentrate (Component C)—100× Concentrate • Probenecid (Component D)—Lyophilized sample is kept at −20° C. Water soluble, 100× after solubilization in 1 mL water. Store at 4° C. • FluxOR™ Chloride-free Buffer (Component E)—5× Concentrate • Potassium sulfate (K2SO4) Concentrate (Component F)—125 mM in water. Store at 4° C. • Thallium sulfate (T12SO4) Concentrate (Component G)—50 mM in water. Store at 4° C. • DMSO (dimethyl sulfoxide, Component H)—1 mL (100%) Reagent Preparation: FluxOR Working Solutions • 1000× FluxOR™ Reagent: Reconstitute a vial of component A in 100 μl DMSO; Mix well; Store 10 μl aliquots at −20° C. • 1× FluxOR™ Assay Buffer: Dilute Component B 10-fold with water; Adjust pH to 7.4 with Hepes/NaOH; Filter and store at 4° C. • Probenecid/Assay Buffer: 100 mL of 1× FluxOR™ Assay Buffer; 1 mL of reconstituted component D; Store at 4° C. • Loading Buffer (per microplate): 10 μl 1000× FluxOR™ Reagent; 100 μl component C; 10 mL Probenecid/Assay Buffer • Compound Buffer (per microplate): 20 mL Probenecid/Assay Buffer; 0.3 mM ouabain (10 mM ouabain in water can be stored in amber bottle/aluminum foil at room temperature); Test compound • 1× FluxOR™ Chloride-Free Buffer: Prepare 1× working solution in water. Can be stored at room temperature • Stimulant Buffer (prepared at 5× final concentration in 1× FluxOR™ Chloride-Free Buffer): 7.5 mM Thallium sulfate and 0.75 mM Potassium sulfate (to give a final assay concentration of 3 mM Thallium/0.3 mM Potassium). Store at 4° C. when not in use.
Assay protocol—The ROMK channel functional thallium flux assay is performed in 384 wells, using the FLIPR-Tetra instrument. HEK-hKir1.1 cells are seeded in Poly-D-Lysine microplates and kept in a 37° C.-10% CO2 incubator overnight. On the day of the experiment, the growth media is replaced with the FluxOR™ reagent loading buffer and incubated, protected from light, at ambient temperature (23-25° C.) for 90 min. The loading buffer is replaced with assay buffer±test compound followed by 30 min incubation at ambient temperature, where the Thallium/Potassium stimulant is added to the microplate.
• 1. Seed HEK-hKir1.1 cells (50 μl at 20,000 cells/well) in 384-well PDL coated Microplates • 2. Allow cells to adhere overnight in humidified 37° C./10% CO2 incubator • 3. Completely remove cell growth media from microplate and replace with 25 μl loading buffer • 4. Incubate Microplate at room temperature, protected from light, for 90 min • 5. Remove loading buffer and replace with 25 μl 1× Assay Buffer±test compound. • 6. Incubate microplate at room temperature, protected from light, for 30 min • 7. […]

SMILES | IC50 [nM]
Cc1c([C@@H](O)CN2CCC(C(=O)Nc3ccc(-n4cccn4)cc3)CC2)ccc2c1COC2=O [Example 23, (R)-N-(4-(1H-pyrazol-1-yl)phenyl)-1-(2-hydroxy-2-(4-methyl-1-oxo-1,3-dihydroisobenzofuran-5-yl)ethyl)piperidine-4-carboxamide] | 80
Cc1c([C@@H](O)CN2CCC(C(=O)Nc3cccc(-n4cnnn4)c3)CC2)ccc2c1COC2=O [Example 24, (R)-N-(3-(1H-tetrazol-1-yl)phenyl)-1-(2-hydroxy-2-(4-methyl-1-oxo-1,3-dihydroisobenzofuran-5-yl)ethyl)piperidine-4-carboxamide] | 90
CCOc1cc(NC(=O)C2CCN(C[C@H](O)c3ccc4c(c3C)COC4=O)CC2)ccc1C#N [Example 25, (R)-N-(4-cyano-3-ethoxyphenyl)-1-(2-hydroxy-2-(4-methyl-1-oxo-1,3-dihydroisobenzofuran-5-yl)ethyl)piperidine-4-carboxamide] | 180
COc1cc(NC(=O)C2CCN(C[C@H](O)c3ccc4c(c3C)COC4=O)CC2)ccc1C#N [Example 26, (R)-N-(4-cyano-3-methoxyphenyl)-1-(2-hydroxy-2-(4-methyl-1-oxo-1,3-dihydroisobenzofuran-5-yl)ethyl)piperidine-4-carboxamide] | 150
Cc1c([C@@H](O)CN2CCC(C(=O)Nc3cnoc3)CC2)ccc2c1COC2=O [Example 27, (R)-1-(2-hydroxy-2-(4-methyl-1-oxo-1,3-dihydroisobenzofuran-5-yl)ethyl)-N-(isoxazol-4-yl)piperidine-4-carboxamide] | 140
Cc1c([C@@H](O)CN2CCC(C(=O)Nc3cnsc3)CC2)ccc2c1COC2=O [Example 28, (R)-1-(2-hydroxy-2-(4-methyl-1-oxo-1,3-dihydroisobenzofuran-5-yl)ethyl)-N-(isothiazol-4-yl)piperidine-4-carboxamide] | 100
Cc1c([C@@H](O)CN2CCC(C(=O)Nc3nc(C#N)cs3)CC2)ccc2c1COC2=O [Example 29, (R)-N-(4-cyanothiazol-2-yl)-1-(2-hydroxy-2-(4-methyl-1-oxo-1,3-dihydroisobenzofuran-5-yl)ethyl)piperidine-4-carboxamide] | 240
Cc1c([C@@H](O)CN2CCC(C(=O)Nc3snc4ccncc34)CC2)ccc2c1COC2=O [Example 30, (R)-1-(2-hydroxy-2-(4-methyl-1-oxo-1,3-dihydroisobenzofuran-5-yl)ethyl)-N-(isothiazolo[4,3-c]pyridin-3-yl)piperidine-4-carboxamide] | 100
Cc1nsc(NC(=O)C2CCN(C[C@H](O)c3ccc4c(c3C)COC4=O)CC2)n1 [Example 31, (R)-1-(2-hydroxy-2-(4-methyl-1-oxo-1,3-dihydroisobenzofuran-5-yl)ethyl)-N-(3-methyl-1,2,4-thiadiazol-5-yl)piperidine-4-carboxamide] | 160

Second part, the compound after the results:

IC50 [nM] | SMILES
300 | Cc1c([C@@H](O)CN2CCC(C(=O)Nc3nc(C4CC4)ns3)CC2)ccc2c1COC2=O [Example 32, (R)-N-(3-cyclopropyl-1,2,4-thiadiazol-5-yl)-1-(2-hydroxy-2-(4-methyl-1-oxo-1,3-dihydroisobenzofuran-5-yl)ethyl)piperidine-4-carboxamide]
170 | Cc1c([C@@H](O)CN2CCC(C(=O)Nc3ccc(-c4csnn4)cc3)CC2)ccc2c1COC2=O [Example 33, (R)-N-(4-(1,2,3-thiadiazol-4-yl)phenyl)-1-(2-hydroxy-2-(4-methyl-1-oxo-1,3-dihydroisobenzofuran-5-yl)ethyl)piperidine-4-carboxamide]
340 | Cc1c([C@@H](O)CN2CCC(C(=O)Nc3cncc(F)c3)CC2)ccc2c1COC2=O [Example 34, (R)-N-(5-fluoropyridin-3-yl)-1-(2-hydroxy-2-(4-methyl-1-oxo-1,3-dihydroisobenzofuran-5-yl)ethyl)piperidine-4-carboxamide]
420 | Cc1c([C@@H](O)CN2CCC(C(=O)Nc3ccncc3)CC2)ccc2c1COC2=O [Example 35, (R)-1-(2-hydroxy-2-(4-methyl-1-oxo-1,3-dihydroisobenzofuran-5-yl)ethyl)-N-(pyridin-4-yl)piperidine-4-carboxamide]
120 | Cc1cc(NC(=O)C2CCN(C[C@H](O)c3ccc4c(c3C)COC4=O)CC2)sn1 [Example 36, (R)-1-(2-hydroxy-2-(4-methyl-1-oxo-1,3-dihydroisobenzofuran-5-yl)ethyl)-N-(3-methylisothiazol-5-yl)piperidine-4-carboxamide]
110 | Cc1c([C@@H](O)CN2CCC(O)(C(=O)Nc3ccns3)CC2)ccc2c1COC2=O [Example 38, (R)-4-hydroxy-1-(2-hydroxy-2-(4-methyl-1-oxo-1,3-dihydroisobenzofuran-5-yl)ethyl)-N-(isothiazol-5-yl)piperidine-4-carboxamide]
220 | Cc1cc(NC(=O)C2(O)CCN(C[C@H](O)c3ccc4c(c3C)COC4=O)CC2)sn1 [Example 39, (R)-4-hydroxy-1-(2-hydroxy-2-(4-methyl-1-oxo-1,3-dihydroisobenzofuran-5-yl)ethyl)-N-(3-methylisothiazol-5-yl)piperidine-4-carboxamide]
420 | Cc1nsc(NC(=O)C2(O)CCN(C[C@H](O)c3ccc4c(c3C)COC4=O)CC2)n1 [Example 40, (R)-4-hydroxy-1-(2-hydroxy-2-(4-methyl-1-oxo-1,3-dihydroisobenzofuran-5-yl)ethyl)-N-(3-methyl-1,2,4-thiadiazol-5-yl)piperidine-4-carboxamide]
10 | Cc1c([C@@H](O)CN2CCC(C(=O)N(C)c3ccns3)CC2)ccc2c1COC2=O [Example 41, 1-[(2R)-2-hydroxy-2-(4-methyl-1-oxo-1,3-dihydro-2-benzofuran-5-yl)ethyl]-N-(isothiazol-5-yl)-N-methylpiperidine-4-carboxamide]
20 | Cl.[2H]C([2H])([2H])N(C(=O)C1CCN(C[C@H](O)c2ccc3c(c2C)COC3=O)CC1)c1ccns1 [Example 42, 1-[(2R)-2-hydroxy-2-(4-methyl-1-oxo-1,3-dihydro-2-benzofuran-5-yl)ethyl]-N-(isothiazol-5-yl)-N-trideuteromethylpiperidine-4-carboxamide]
50 | CCN(C(=O)C1CCN(C[C@H](O)c2ccc3c(c2C)COC3=O)CC1)c1ccns1 [Example 43, (R)-N-ethyl-1-(2-hydroxy-2-(4-methyl-1-oxo-1,3-dihydroisobenzofuran-5-yl)ethyl)-N-(isothiazol-5-yl)piperidine-4-carboxamide]
20 | Cc1cc(N(C)C(=O)C2CCN(C[C@H](O)c3ccc4c(c3C)COC4=O)CC2)sn1 [Example 44, (R)-1-(2-hydroxy-2-(4-methyl-1-oxo-1,3-dihydroisobenzofuran-5-yl)ethyl)-N-methyl-N-(3-methylisothiazol-5-yl)piperidine-4-carboxamide]
